Test results taken from the supplement of paper PMC10307832.

Tests used:
Experiment in all cases: relative viability (nuclei count vs DMSO), 5 days (fraction); higher = more cells survive
[1] = compound: C1COCCN1C2=NC(=NC3=C2OC4=C3C=CC=N4)C5=CC(=CC=C5)NC(=O)C6=CN=C(C=C6)N + COc1cccc2cc(-c3nc([C@H]4CC[C@H](C(=O)O)CC4)n4ncnc(N)c34)[nH]c12 [OSI-027] (partner 0.5 µM)
Outline: (§1)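 One day after seeding in 1536-well plates, lung cancer cell lines were dosed by pin tool. Dosing was either single-drug or a fixed anchor-drug dose plus five library-drug doses (not always all listed) in √10 steps. After 5 days, nuclei were stained in one fix-and-stain step and counted on 4× images, and relative viability is the nuclei count of treated wells over that of vehicle wells, given as the median of duplicate plates.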

[2] = compound: C1COCCN1C2=NC(=NC3=C2OC4=C3C=CC=N4)C5=CC(=CC=C5)NC(=O)C6=CN=C(C=C6)N + Nc1nc2[nH]cc(CCc3ccc(C(=O)N[C@@H](CCC(=O)O)C(=O)O)cc3)c2c(=O)[nH]1 [Pemetrexed] (partner 0.2 µM)
Outline: as §1

SGI-1776 + Pictilisib = compound: CN1CCC(CNc2ccc3ncc(-c4cccc(OC(F)(F)F)c4)n3n2)CC1 [SGI-1776] + CS(=O)(=O)N1CCN(Cc2cc3nc(-c4cccc5[nH]ncc45)nc(N4CCOCC4)c3s2)CC1 [Pictilisib] (partner 1 µM)
Outline: as §1

[3] = compound: C1COCCN1C2=NC(=NC3=C2OC4=C3C=CC=N4)C5=CC(=CC=C5)NC(=O)C6=CN=C(C=C6)N + O=C(CCCCCCC(=O)Nc1ccccc1)NO [Vorinostat] (partner 1 µM)
Outline: as §1

HCC-366
relative viability ([1]; first compound 0.02 µM): 0.82 | relative viability ([1]; first compound 0.06325 µM): 1.04 | relative viability ([1]; first compound 0.2 µM): 0.68 | relative viability ([1]; first compound 0.6325 µM): 0.537 | relative viability ([1]; first compound 2 µM): 0.352 | relative viability ([2]; first compound 0.02 µM): 0.186 | relative viability ([2]; first compound 0.06325 µM): 0.189 | relative viability ([2]; first compound 0.2 µM): 0.195 | relative viability ([2]; first compound 0.6325 µM): 0.219 | relative viability ([2]; first compound 2 µM): 0.0985 | relative viability (SGI-1776 + Pictilisib; first compound 0.08 µM): 0.158 | relative viability (SGI-1776 + Pictilisib; first compound 0.8 µM): 0.192 | relative viability (SGI-1776 + Pictilisib; first compound 2.53 µM): 0.137 | relative viability (SGI-1776 + Pictilisib; first compound 8 µM): 0.0802 | relative viability ([3]; first compound 0.02 µM): 0.395 | relative viability ([3]; first compound 0.06325 µM): 0.36 | relative viability ([3]; first compound 0.2 µM): 0.327 | relative viability ([3]; first compound 0.6325 µM): 0.444 | relative viability ([3]; first compound 2 µM): 0.249

HCC-827
relative viability ([1]; first compound 0.02 µM): 0.769 | relative viability ([1]; first compound 0.06325 µM): 0.851 | relative viability ([1]; first compound 0.2 µM): 0.72 | relative viability ([1]; first compound 0.6325 µM): 0.684 | relative viability ([1]; first compound 2 µM): 0.487 | relative viability ([2]; first compound 0.02 µM): 0.249 | relative viability ([2]; first compound 0.06325 µM): 0.284 | relative viability ([2]; first compound 0.2 µM): 0.262 | relative viability ([2]; first compound 0.6325 µM): 0.278 | relative viability ([2]; first compound 2 µM): 0.265 | relative viability (SGI-1776 + Pictilisib; first compound 0.08 µM): 1.02 | relative viability (SGI-1776 + Pictilisib; first compound 0.8 µM): 1.21 | relative viability (SGI-1776 + Pictilisib; first compound 2.53 µM): 1.09 | relative viability (SGI-1776 + Pictilisib; first compound 8 µM): 0.877 | relative viability ([3]; first compound 0.02 µM): 0.792 | relative viability ([3]; first compound 0.06325 µM): 1.05 | relative viability ([3]; first compound 0.2 µM): 0.868 | relative viability ([3]; first compound 0.6325 µM): 0.661 | relative viability ([3]; first compound 2 µM): 0.811

HOP-62
relative viability ([1]; first compound 0.02 µM): 0.947 | relative viability ([1]; first compound 0.06325 µM): 0.938 | relative viability ([1]; first compound 0.2 µM): 0.713 | relative viability ([1]; first compound 0.6325 µM): 0.748 | relative viability ([1]; first compound 2 µM): 0.481 | relative viability ([2]; first compound 0.02 µM): 0.298 | relative viability ([2]; first compound 0.06325 µM): 0.3 | relative viability ([2]; first compound 0.2 µM): 0.301 | relative viability ([2]; first compound 0.6325 µM): 0.29 | relative viability ([2]; first compound 2 µM): 0.162 | relative viability (SGI-1776 + Pictilisib; first compound 0.08 µM): 0.849 | relative viability (SGI-1776 + Pictilisib; first compound 0.8 µM): 0.734 | relative viability (SGI-1776 + Pictilisib; first compound 2.53 µM): 1.08 | relative viability (SGI-1776 + Pictilisib; first compound 8 µM): 0.607 | relative viability ([3]; first compound 0.02 µM): 0.753 | relative viability ([3]; first compound 0.06325 µM): 0.768 | relative viability ([3]; first compound 0.2 µM): 0.674 | relative viability ([3]; first compound 0.6325 µM): 0.58 | relative viability ([3]; first compound 2 µM): 0.373

IA-LM
relative viability (SGI-1776 + Pictilisib; first compound 0.08 µM): 0.281 | relative viability (SGI-1776 + Pictilisib; first compound 0.8 µM): 0.328 | relative viability (SGI-1776 + Pictilisib; first compound 2.53 µM): 0.389 | relative viability (SGI-1776 + Pictilisib; first compound 8 µM): 0.242 | relative viability ([3]; first compound 0.02 µM): 0.855 | relative viability ([3]; first compound 0.06325 µM): 1.03 | relative viability ([3]; first compound 0.2 µM): 1.08 | relative viability ([3]; first compound 0.6325 µM): 0.44 | relative viability ([3]; first compound 2 µM): 0.401

LC-2-ad
relative viability ([1]; first compound 0.02 µM): 0.834 | relative viability ([1]; first compound 0.06325 µM): 0.981 | relative viability ([1]; first compound 0.2 µM): 0.747 | relative viability ([1]; first compound 0.6325 µM): 0.72 | relative viability ([1]; first compound 2 µM): 0.625 | relative viability ([2]; first compound 0.02 µM): 0.263 | relative viability ([2]; first compound 0.06325 µM): 0.292 | relative viability ([2]; first compound 0.2 µM): 0.289 | relative viability ([2]; first compound 0.6325 µM): 0.253 | relative viability ([2]; first compound 2 µM): 0.262 | relative viability (SGI-1776 + Pictilisib; first compound 0.08 µM): 0.428 | relative viability (SGI-1776 + Pictilisib; first compound 0.8 µM): 0.522 | relative viability (SGI-1776 + Pictilisib; first compound 2.53 µM): 0.544 | relative viability (SGI-1776 + Pictilisib; first compound 8 µM): 0.254 | relative viability ([3]; first compound 0.02 µM): 0.712 | relative viability ([3]; first compound 0.06325 µM): 0.695 | relative viability ([3]; first compound 0.2 µM): 0.738 | relative viability ([3]; first compound 0.6325 µM): 0.702 | relative viability ([3]; first compound 2 µM): 0.508

LCLC-97TM1
relative viability ([1]; first compound 0.02 µM): 0.525 | relative viability ([1]; first compound 0.06325 µM): 0.519 | relative viability ([1]; first compound 0.2 µM): 0.485 | relative viability ([1]; first compound 0.6325 µM): 0.507 | relative viability ([1]; first compound 2 µM): 0.353 | relative viability ([2]; first compound 0.02 µM): 0.199 | relative viability ([2]; first compound 0.06325 µM): 0.195 | relative viability ([2]; first compound 0.2 µM): 0.181 | relative viability ([2]; first compound 0.6325 µM): 0.203 | relative viability ([2]; first compound 2 µM): 0.2 | relative viability (SGI-1776 + Pictilisib; first compound 0.08 µM): 0.25 | relative viability (SGI-1776 + Pictilisib; first compound 0.8 µM): 0.296 | relative viability (SGI-1776 + Pictilisib; first compound 2.53 µM): 0.196 | relative viability (SGI-1776 + Pictilisib; first compound 8 µM): 0.179 | relative viability ([3]; first compound 0.02 µM): 0.804 | relative viability ([3]; first compound 0.06325 µM): 0.862 | relative viability ([3]; first compound 0.2 µM): 0.751 | relative viability ([3]; first compound 0.6325 µM): 0.755 | relative viability ([3]; first compound 2 µM): 0.43

LCLC-103H
relative viability ([1]; first compound 0.02 µM): 0.409 | relative viability ([1]; first compound 0.06325 µM): 0.419 | relative viability ([1]; first compound 0.2 µM): 0.446 | relative viability ([1]; first compound 0.6325 µM): 0.452 | relative viability ([1]; first compound 2 µM): 0.335 | relative viability ([2]; first compound 0.02 µM): 0.466 | relative viability ([2]; first compound 0.06325 µM): 0.435 | relative viability ([2]; first compound 0.2 µM): 0.444 | relative viability ([2]; first compound 0.6325 µM): 0.465 | relative viability ([2]; first compound 2 µM): 0.419 | relative viability (SGI-1776 + Pictilisib; first compound 0.08 µM): 0.752 | relative viability (SGI-1776 + Pictilisib; first compound 0.8 µM): 0.608 | relative viability (SGI-1776 + Pictilisib; first compound 2.53 µM): 0.554 | relative viability (SGI-1776 + Pictilisib; first compound 8 µM): 0.45 | relative viability ([3]; first compound 0.02 µM): 0.806 | relative viability ([3]; first compound 0.06325 µM): 0.804 | relative viability ([3]; first compound 0.2 µM): 0.699 | relative viability ([3]; first compound 0.6325 µM): 0.728 | relative viability ([3]; first compound 2 µM): 0.698

LK-2
relative viability ([1]; first compound 0.02 µM): 0.196 | relative viability ([1]; first compound 0.06325 µM): 0.178 | relative viability ([1]; first compound 0.2 µM): 0.165 | relative viability ([1]; first compound 0.6325 µM): 0.216 | relative viability ([1]; first compound 2 µM): 0.196 | relative viability ([2]; first compound 0.02 µM): 0.291 | relative viability ([2]; first compound 0.06325 µM): 0.238 | relative viability ([2]; first compound 0.2 µM): 0.284 | relative viability ([2]; first compound 0.6325 µM): 0.208 | relative viability ([2]; first compound 2 µM): 0.24 | relative viability (SGI-1776 + Pictilisib; first compound 0.08 µM): 0.504 | relative viability (SGI-1776 + Pictilisib; first compound 0.8 µM): 0.563 | relative viability (SGI-1776 + Pictilisib; first compound 2.53 µM): 0.47 | relative viability (SGI-1776 + Pictilisib; first compound 8 µM): 0.308 | relative viability ([3]; first compound 0.02 µM): 0.125 | relative viability ([3]; first compound 0.06325 µM): 0.317 | relative viability ([3]; first compound 0.2 µM): 0.247 | relative viability ([3]; first compound 0.6325 µM): 0.273 | relative viability ([3]; first compound 2 µM): 0.257

LOU-NH91
relative viability ([1]; first compound 0.02 µM): 0.699 | relative viability ([1]; first compound 0.06325 µM): 0.686 | relative viability ([1]; first compound 0.2 µM): 0.739 | relative viability ([1]; first compound 0.6325 µM): 0.68 | relative viability ([1]; first compound 2 µM): 0.657 | relative viability ([2]; first compound 0.02 µM): 0.353 | relative viability ([2]; first compound 0.06325 µM): 0.363 | relative viability ([2]; first compound 0.2 µM): 0.349 | relative viability ([2]; first compound 0.6325 µM): 0.337 | relative viability ([2]; first compound 2 µM): 0.456 | relative viability (SGI-1776 + Pictilisib; first compound 0.08 µM): 0.565 | relative viability (SGI-1776 + Pictilisib; first compound 0.8 µM): 0.55 | relative viability (SGI-1776 + Pictilisib; first compound 2.53 µM): 0.505 | relative viability (SGI-1776 + Pictilisib; first compound 8 µM): 0.504 | relative viability ([3]; first compound 0.02 µM): 0.95 | relative viability ([3]; first compound 0.06325 µM): 0.975 | relative viability ([3]; first compound 0.2 µM): 0.926 | relative viability ([3]; first compound 0.6325 µM): 0.86 | relative viability ([3]; first compound 2 µM): 0.78
